Earlier results in patent US11804282B1, “Systems and methods for drug clustering” (nference, Inc., priority 2018, dated 2023).

What was measured:
VEGFR2 protein = VEGFR2 protein (Homo sapiens, UniProt P35968); settings: poly-protein screening (FIG. 4 inset)
[1] = tested on: distinct purified proteins; settings: proteome-wide screening data (FIG. 3 inset)

Chain of VEGFR2 protein (P35968 20-1356): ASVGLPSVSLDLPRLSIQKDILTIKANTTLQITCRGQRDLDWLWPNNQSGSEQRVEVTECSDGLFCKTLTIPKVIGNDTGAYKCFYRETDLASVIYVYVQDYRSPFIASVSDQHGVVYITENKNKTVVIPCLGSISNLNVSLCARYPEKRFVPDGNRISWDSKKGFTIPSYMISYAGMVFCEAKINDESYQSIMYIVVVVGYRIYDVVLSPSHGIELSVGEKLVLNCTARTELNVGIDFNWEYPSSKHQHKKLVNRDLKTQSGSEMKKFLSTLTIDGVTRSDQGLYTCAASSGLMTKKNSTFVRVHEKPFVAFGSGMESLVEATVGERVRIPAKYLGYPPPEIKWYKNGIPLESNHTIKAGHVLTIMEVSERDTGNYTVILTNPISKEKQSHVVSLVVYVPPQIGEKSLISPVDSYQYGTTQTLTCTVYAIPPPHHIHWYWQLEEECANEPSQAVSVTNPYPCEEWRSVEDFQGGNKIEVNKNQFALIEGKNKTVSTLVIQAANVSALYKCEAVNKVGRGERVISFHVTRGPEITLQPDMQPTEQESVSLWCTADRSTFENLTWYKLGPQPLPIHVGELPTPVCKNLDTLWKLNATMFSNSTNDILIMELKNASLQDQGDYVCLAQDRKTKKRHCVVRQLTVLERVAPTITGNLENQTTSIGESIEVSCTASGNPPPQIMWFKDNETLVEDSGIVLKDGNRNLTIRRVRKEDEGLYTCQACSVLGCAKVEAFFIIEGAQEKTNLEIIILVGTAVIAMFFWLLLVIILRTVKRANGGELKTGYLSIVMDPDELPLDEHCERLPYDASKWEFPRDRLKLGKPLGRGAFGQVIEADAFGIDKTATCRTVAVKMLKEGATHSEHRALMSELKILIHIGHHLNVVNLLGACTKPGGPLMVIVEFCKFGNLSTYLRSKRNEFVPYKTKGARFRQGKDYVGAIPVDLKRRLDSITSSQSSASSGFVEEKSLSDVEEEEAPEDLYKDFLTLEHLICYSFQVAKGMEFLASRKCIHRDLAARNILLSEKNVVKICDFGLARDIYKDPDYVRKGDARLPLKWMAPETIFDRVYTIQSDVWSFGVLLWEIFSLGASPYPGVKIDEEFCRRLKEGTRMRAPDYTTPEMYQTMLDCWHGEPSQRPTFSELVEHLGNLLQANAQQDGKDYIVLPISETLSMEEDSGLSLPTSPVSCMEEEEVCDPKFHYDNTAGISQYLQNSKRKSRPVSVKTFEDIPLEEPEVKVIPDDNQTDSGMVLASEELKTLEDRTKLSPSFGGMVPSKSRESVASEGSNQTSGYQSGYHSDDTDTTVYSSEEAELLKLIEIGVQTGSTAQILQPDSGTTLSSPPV

affinity to the VEGFR2 protein (VEGFR2 protein): almost no affinity
SMILES: Cc1ccc(NC(=O)c2ccc(CN3CCN(C)CC3)cc2)cc1Nc1nccc(-c2cccnc2)n1 [imatinib]
number of distinct purified proteins bound [1]: less than 50 distinct purified proteins
